Measured values from patent publication US20250170155A1, “NUCLEOSIDE DERIVATIVES AND PRODRUGS THEREOF HAVING VIRAL GROWTH INHIBITORY ACTION” (Shionogi & Co., Ltd., priority 2021, published 2025).

Assay: Lung distribution test
Format: in vivo
Conditions: SD rats, 8 hours after oral administration (25 mg/kg); for concentration at 8 h: rat, read-out: Prodrug form concentration (lung)
Description: Test Example 5: Lung Distribution Test
Materials and methods for experiments • (1) Animals used: SD rats are used. • (2) Rearing conditions: the SD rats are allowed to freely take solid feed and sterilized tap water. • (3) Dose and grouping setting: a given dose is orally administered. Grouping is set as below.
Oral administration: 1 to 100 mg/kg (n=2 to 3) • (4) The test sample is orally administered in a form of solution or suspension. • (5) Administration method: the test sample is forcedly administered into the stomach through an oral probe for the oral administration. • (6) Evaluation items: Blood and lung are collected, and the concentrations of the compound of the present invention in plasma and lung are measured using LC/MS/MS.
Lung concentrations of Compound I-057 as an active form and Compound I-077 as a prodrug form thereof 8 hours after they were orally administered (25 mg/kg) are shown below.
In addition, lung concentrations of other prodrug forms 8 hours after they were orally administered (25 mg/kg) are shown below.

SMILES | Active form concentration (lung) [ng/g] | concentration at 8 h [ng/g]
CCC(CC)C(=O)OC[C@H]1N[C@@H](c2cc(C(N)=O)c3c(N)ncnn23)[C@H](O)[C@@H]1O [Compound I-054] | 6480 | 
CC(C)(C)CC(=O)OC[C@H]1N[C@@H](c2cc(C(N)=O)c3c(N)ncnn23)[C@H](O)[C@@H]1O [Compound I-058] |  | 12.7
CCC(C)(C)C(=O)OC[C@H]1N[C@@H](c2cc(C(N)=O)c3c(N)ncnn23)[C@H](O)[C@@H]1O [Compound I-063] |  | 3.85
CC(C)(C(=O)OC[C@H]1N[C@@H](c2cc(C(N)=O)c3c(N)ncnn23)[C@H](O)[C@@H]1O)c1ccccc1 [Compound I-072] |  | 6.41
